Measured values: PMC6820543, “Pig liver esterases PLE1 and PLE6: heterologous expression, hydrolysis of common antibiotics and pharmacological consequences” (Scientific Reports, 2019)

How the values were obtained:
[1] = tested on: T1, PLE6 (pig liver esterase 6); assay: LC-MS/MS product quantification, Lineweaver-Burk; format: biochemical, Sus scrofa; details: Tris-HCl 50 mM pH 7.4, 37 °C, 12.5-800 µM substrate
T1 construct: recombinant from pET-15b in E. coli Origami (DE3) with chaperone pGro7, His-tag column; cDNA 1698 bp, 566 residues with 18-residue signal peptide, about 60 kDa

[2] = substrate: CC1(C)S[C@@H]2[C@H](NC(=O)[C@H](N)c3ccccc3)C(=O)N2[C@H]1C(=O)O; assay: LC-MS/MS product quantification, Lineweaver-Burk; format: biochemical, Sus scrofa; details: Tris-HCl 50 mM pH 7.4, 37 °C, 12.5-800 µM substrate, beta-lactam amide hydrolysis to aminobenzyl-penicilloic acid
purified protein = substrate: CC1(C)S[C@@H]2[C@H](NC(=O)[C@H](N)c3ccc(O)cc3)C(=O)N2[C@H]1C(=O)O; assay: purified protein; details: Tris-HCl 50 mM pH 7.4, 37 °C, 12.5-800 µM substrate, beta-lactam amide hydrolysis to amoxicilloic acid

CC1(C)S[C@@H]2[C@H](NC(=O)[C@H](N)c3ccccc3)C(=O)N2[C@H]1C(=O)O [ampicillin]
Km ([1]; beta-lactam amide hydrolysis to aminobenzyl-penicilloic acid): 64.2 µM

CC1(C)S[C@@H]2[C@H](NC(=O)[C@H](N)c3ccc(O)cc3)C(=O)N2[C@H]1C(=O)O [amoxicillin]
Km ([1]; beta-lactam amide hydrolysis to amoxicilloic acid): 36.7 µM

B1: PLE1 (pig liver esterase 1) (Sus scrofa) (protein)
chain: GQPASPPVVDTAQGRVLGKYVSLEGLAQPVAVFLGVPFAKPPLGSLRFAPPQPAEPWSFVKNTTSYPPMCCQDPVVEQMTSDLFTNGKERLTLEFSEDCLYLNIYTPADLTKRGRLPVMVWIHGGGLVLGGAPMYDGVVLAAHENVVVVAIQYRLGIWGFFSTGDEHSRGNWGHLDQVAALHWVQENIANFGGDPGSVTIFGESAGGESVSVLVLSPLAKNLFHRAISESGVALTVALVRKDMKAAAKQIAVLAGCKTTTSAVFVHCLRQKSEDELLDLTLKMKFLTLDFHGDQRESHPFLPTVVDGVLLPKMPEEILAEKDFNTVPYIVGINKQEFGWLLPTMMGFPLSEGKLDQKTATSLLWKSYPIANIPEELTPVATDKYLGGTDDPVKKKDLFLDLMGDVMFGVPSVTVARQHRDAGAPTYMYEFQYRPSFSSDKKPKTVIGDHGDEIFSVFGFPLLKGDAPEEEVSLSKMVMKFWANFARSGNPNGEGLPHWPMYDQEEGYLQIGVNTQAAKRLKGEEVAFWNDLLSKEAAKKPPKIKHAEL
notes: recombinant from pET-15b in E. coli Origami (DE3) with chaperone pGro7, His-tag column; cDNA 1698 bp, 566 residues with 18-residue signal peptide, about 60 kDa
Km [2]: 89.20 µM
Km (purified protein): 62.04 µM
